From US20110165115A1, “SYNERGISTIC ATTRACTANTS FOR PESTIFEROUS SOCIAL INSECTS” (STERLING INTERNATIONAL INC., priority 2010, published 2011)

Columns and labels:
[1] = system: V. vulgaris; assay: Field trapping Experiment 2, DMNT dose-response with W•H•Y top attractants; type: in vivo, Vespula vulgaris; conditions: Exp 2, DMNT added to WHY top attractant
Protocol: (§1) Three field trapping experiments were carried out during late July to early August 2009, in residential and woody areas around Spokane, Wash., USA, using the newly marketed Rescue® W•H•Y traps (www.rescue.com). As used herein, the W•H•Y trap is a trap in accordance with the description of United States Patent Application Publication No. 2009/0151228. The W•H•Y trap has a top chamber and a bottom chamber. The top chamber is baited with two attractants—one of which is a solid contained in a vial (2-methyl-1-butanol) and the other a liquid mixed with water (acetic acid), herein referred to as the W•H•Y top attractant. The bottom chamber is baited with a liquid attractant (heptyl butyrate) poured onto a cotton pad, herein referred to as the W•H•Y bottom attractant. Separation of the top and bottom attractants (otherwise antagonistic to each other when released from the same chamber) in two chambers was a design feature of this trap and creates two focal attraction sources from one trap for different species of wasps, hornets, and yellowjackets. Traps were hung 1.5-2.0 m above the ground on either the fence or tree branches ca. 5 m apart within each trap line. For each trapping experiment, six sets of traps were deployed with their initial trap positions within each set being randomized. To minimize positional effects and obtain more replications, wasp collections and trap re-randomization were carried out when ≧10-20 wasps were caught in the best trap. Each replicate lasted several days depending on wasp flight activity. Captured wasps were removed from the traps and kept in the zip-bags before taking back to the laboratory for recording of the species, gender status, and catch.
(§2) Experiment 3 (Aug. 5-13, 2009) was conducted to determine the potential behavioral activity of different doses of (E)-4,8-dimethyl-1,3,7-nonatriene alone. The individual (or different doses) HIPVs were loaded into either polyethylene bags or centrifuge tube type of dispensers, and released from the top of the W•H•Y trap chamber. W•H•Y trap attractants (both top and bottom or top only) alone and water (top chamber only) were included in the test as positive and blank controls, respectively. The dispenser types, loading and release rates of the tested semiochemicals are described in Tables 1, 2 and 3.
(§3) Trap catch data were converted to proportion (P) of total captured wasps within each replicate. Data were then transformed by arcsin√P to meet the assumptions of normality and homogeneity of variances for ANOVA. Means were compared by ANOVA followed by the Ryan-Einot-Gabriel-Welsh (REGW) multiple Q test (SPSS 16.0 for Windows) at α=0.05.

[2] = system: D. maculata; assay: as above; type: in vivo, Dolichovespula maculata; conditions: Exp 2, DMNT added to WHY top attractant
Protocol: as §1
Experiment 1 (Jul. 22-30, 2009) tested ten synthetic HIPV candidates [(E)-2-hexenal, (Z)-3-hexen-1-ol, (Z)-3-hexenyl acetate, cis-ocimene, linalool, methyl salicylate, geranyl acetate, trans-β-caryophyllene, trans-β-farnesene and (E)-4,8-dimethyl-1,3,7-nonatriene], including several paper wasp EAD-active compounds (see FIG. 2 for details), to determine their potential synergistic effect on the Rescue® W•H•Y trap attractants to paper wasps, yellowjackets, and hornets. Experiment 2 (Aug. 5-13, 2009) tested behavioral responses of the paper wasps and yellowjackets to the Rescue® W•H•Y trap attractants (top attractants only) and its combination with (E)-4,8-dimethyl-1,3,7-nonatriene, one of the EAD-active and behaviorally significant HIPVs, in a dose-response fashion. Experiment 3 (Aug. 5-13, 2009) was conducted to determine the potential behavioral activity of different doses of (E)-4,8-dimethyl-1,3,7-nonatriene alone. The individual (or different doses) HIPVs were loaded into either polyethylene bags or centrifuge tube type of dispensers, and released from the top of the W•H•Y trap chamber. W•H•Y trap attractants (both top and bottom or top only) alone and water (top chamber only) were included in the test as positive and blank controls, respectively. The dispenser types, loading and release rates of the tested semiochemicals are described in Tables 1, 2 and 3.
as §3

[3] = system: V. pensylvanica; assay: Field trapping Experiment 3, different doses of DMNT alone; type: in vivo, Vespula pensylvanica
Protocol: as §1, §2, §3

[4] = system: V. atropilosa; assay: as above; type: in vivo, Vespula atropilosa
Protocol: as §1, §2, §3

[5] = system: P. dominulus; assay: Field trapping Experiment 2, DMNT dose-response with W•H•Y top attractants; type: in vivo, Polistes dominulus; conditions: Exp 2, DMNT added to WHY top attractant
Protocol: as §1, §2, §3

[6] = release rate 0.25, hole 0.5 mm, loading 15 μL
[7] = release rate 0.5, hole 1 mm, loading 30 μL
[8] = release rate 1, hole 2 mm, loading 75 μL
[9] = release rate 1.5, hole 3 mm, loading 175 μL
[10] = release rate 2, hole 5.5 mm, loading 325 μL
[11] = Exp 3, release rate 0.25, hole 0.5 mm, loading 15 μL
[12] = Exp 3, release rate 0.5, hole 1 mm, loading 30 μL
[13] = Exp 3, release rate 1, hole 2 mm, loading 75 μL
[14] = Exp 3, release rate 1.5, hole 3 mm, loading 175 μL
[15] = Exp 3, release rate 2, hole 5.5 mm, loading 325 μL

SMILES: C=C/C=C(\C)CCC=C(C)C [(E)-4,8-dimethyl-1,3,7-nonatriene]
- Total Yellowjackets Caught V. vulgaris [1, 6]: 8
- Total Yellowjackets Caught V. vulgaris [1, 7]: 8
- Total Yellowjackets Caught V. vulgaris [1, 8]: 5
- Total Yellowjackets Caught V. vulgaris [1, 9]: 5
- Total Yellowjackets Caught V. vulgaris [1, 10]: 1
- Total Yellowjackets Caught D. maculata [2, 6]: 0
- Total Yellowjackets Caught D. maculata [2, 7]: 1
- Total Yellowjackets Caught D. maculata [2, 8]: 1
- Total Yellowjackets Caught D. maculata [2, 9]: 0
- Total Yellowjackets Caught D. maculata [2, 10]: 0
- Total Yellowjackets Caught V. pensylvanica [3, 11]: 43
- Total Yellowjackets Caught V. pensylvanica [3, 12]: 12
- Total Yellowjackets Caught V. pensylvanica [3, 13]: 34
- Total Yellowjackets Caught V. pensylvanica [3, 14]: 24
- Total Yellowjackets Caught V. pensylvanica [3, 15]: 24
- Total Yellowjackets Caught V. atropilosa [4, 11]: 2
- Total Yellowjackets Caught V. atropilosa [4, 12]: 1
- Total Yellowjackets Caught V. atropilosa [4, 13]: 0
- Total Yellowjackets Caught V. atropilosa [4, 14]: 0
- Total Yellowjackets Caught V. atropilosa [4, 15]: 1
- Total Paper Wasps Caught P. dominulus [5, 6]: 7
- Total Paper Wasps Caught P. dominulus [5, 7]: 2
- Total Paper Wasps Caught P. dominulus [5, 8]: 13
- Total Paper Wasps Caught P. dominulus [5, 9]: 8
- Total Paper Wasps Caught P. dominulus [5, 10]: 5
